Measurements taken from patent US8067599B2 (Hoffman-La Roche Inc., priority 2006, dated 2011).

What was measured:
[1] = target: T1, mouse full-length Src protein (Mus musculus, UniProt P05480); assay: IC50 determination for inhibitors of Src kinase (IMAP fluorescence polarization); format: biochemical; conditions: 24 uM ATP, 37° C., 60 minutes; read-out: IC50 Src kinase inhibition
T1 construct: mouse full-length Src protein
Method: Src assay was done using mouse full-length Src protein, fluorescein labeled peptide substrate (with a sequence of KVEKIGEGTYGVVYK) and quantified by Molecular Devices' IMAP fluorescence polarization technology. Compounds were tested in serially diluted concentrations in 384 well plates. Kinase reaction was performed in KAB Buffer (10 mM HEPES, pH 7, 50 mM NaCl, 5 mM MgCl2, 1 mM DTT, 0.1 mM NaVO4, 0.02% BSA), in the presence of 24 uM ATP, incubated at 37° C. for 60 minutes. Reaction was stopped by IMAP bead mix (at 1:400 dilution). After incubation at room temperature for 2 hours, the reaction product was analyzed on LJL Acquest (excitation 485 nm and Emission 530 nm).
(§1) FP reading (in mP) was used to calculate reaction rate. The assay was semi-automated by Tomtec Quadra workstation.

[2] = target: T2, fusion protein corresponding to mouse Abl (27-end) (Mus musculus, UniProt P00520); assay: IC50 determination for inhibitors of Abl kinase (IMAP fluorescence polarization); format: biochemical; conditions: 22.8 uM ATP, 37° C., 60 minutes; read-out: IC50 Abl kinase inhibition
T2 construct: fusion protein corresponding to mouse Abl (27-end)
T2 sequence (P00520 27-1123 limits assumed): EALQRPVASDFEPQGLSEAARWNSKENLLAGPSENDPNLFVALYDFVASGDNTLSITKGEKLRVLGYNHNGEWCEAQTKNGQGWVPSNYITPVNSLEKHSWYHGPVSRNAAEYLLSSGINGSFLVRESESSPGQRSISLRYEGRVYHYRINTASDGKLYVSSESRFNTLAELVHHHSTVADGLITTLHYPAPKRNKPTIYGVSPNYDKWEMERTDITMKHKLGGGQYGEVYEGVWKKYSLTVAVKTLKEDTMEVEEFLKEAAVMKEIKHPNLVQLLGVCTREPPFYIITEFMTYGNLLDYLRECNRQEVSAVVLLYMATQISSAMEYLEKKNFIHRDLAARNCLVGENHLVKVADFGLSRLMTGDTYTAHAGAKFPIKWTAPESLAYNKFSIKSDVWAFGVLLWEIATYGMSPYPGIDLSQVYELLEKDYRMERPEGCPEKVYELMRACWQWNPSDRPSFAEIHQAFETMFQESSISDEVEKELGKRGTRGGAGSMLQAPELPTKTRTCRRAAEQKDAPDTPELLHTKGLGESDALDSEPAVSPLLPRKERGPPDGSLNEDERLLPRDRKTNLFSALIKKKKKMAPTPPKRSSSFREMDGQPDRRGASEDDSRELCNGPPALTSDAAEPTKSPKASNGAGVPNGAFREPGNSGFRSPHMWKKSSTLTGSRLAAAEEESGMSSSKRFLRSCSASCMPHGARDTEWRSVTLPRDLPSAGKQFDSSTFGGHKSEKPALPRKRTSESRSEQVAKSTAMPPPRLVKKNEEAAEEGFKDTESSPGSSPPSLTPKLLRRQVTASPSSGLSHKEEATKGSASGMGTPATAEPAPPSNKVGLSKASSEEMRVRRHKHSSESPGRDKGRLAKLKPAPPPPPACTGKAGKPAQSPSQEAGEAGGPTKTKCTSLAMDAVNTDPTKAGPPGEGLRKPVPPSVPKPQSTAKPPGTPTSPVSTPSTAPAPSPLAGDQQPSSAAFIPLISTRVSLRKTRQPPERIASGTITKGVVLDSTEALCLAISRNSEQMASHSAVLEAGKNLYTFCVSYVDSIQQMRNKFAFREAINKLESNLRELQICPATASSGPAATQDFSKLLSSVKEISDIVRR
Method: Abl assay was done using fusion protein corresponding to mouse Abl (27-end), fluorescein labeled peptide substrate (with a sequence of EAIYAAPFAKKK) and quantified by Molecular Devices' IMAP fluorescence polarization technology. Compounds were tested in serially diluted concentrations in 384 well plates. Kinase reaction was performed in KAB Buffer (10 mM HEPES, pH 7, 50 mM NaCl, 5 mM MgCl2, 1 mM DTT, 0.1 mM NaVO4, 0.02% BSA), in the presence of 22.8 uM ATP, incubated at 37° C. for 60 minutes. Reaction was stopped by IMAP bead mix (at 1:400 diluted). After incubation at room temperature for 3 hours, the reaction product was analyzed on LJL Acquest (excitation 485 nm and Emission 530 nm).
FP reading (in mP) was used to calculate reaction rate. The assay was semi automated by Tomtec Quadra workstation.

[3] = target: human recombinant PDGFR beta (Homo sapiens, UniProt P09619); assay: IC50 determination for inhibitors of PDGFR kinase (IMAP fluorescence polarization); format: biochemical; conditions: 48 uM ATP, room temperature, 60 minutes, read-out: IC50 PDGFR kinase inhibition
Sequence of human recombinant PDGFR beta (P09619 33-1106): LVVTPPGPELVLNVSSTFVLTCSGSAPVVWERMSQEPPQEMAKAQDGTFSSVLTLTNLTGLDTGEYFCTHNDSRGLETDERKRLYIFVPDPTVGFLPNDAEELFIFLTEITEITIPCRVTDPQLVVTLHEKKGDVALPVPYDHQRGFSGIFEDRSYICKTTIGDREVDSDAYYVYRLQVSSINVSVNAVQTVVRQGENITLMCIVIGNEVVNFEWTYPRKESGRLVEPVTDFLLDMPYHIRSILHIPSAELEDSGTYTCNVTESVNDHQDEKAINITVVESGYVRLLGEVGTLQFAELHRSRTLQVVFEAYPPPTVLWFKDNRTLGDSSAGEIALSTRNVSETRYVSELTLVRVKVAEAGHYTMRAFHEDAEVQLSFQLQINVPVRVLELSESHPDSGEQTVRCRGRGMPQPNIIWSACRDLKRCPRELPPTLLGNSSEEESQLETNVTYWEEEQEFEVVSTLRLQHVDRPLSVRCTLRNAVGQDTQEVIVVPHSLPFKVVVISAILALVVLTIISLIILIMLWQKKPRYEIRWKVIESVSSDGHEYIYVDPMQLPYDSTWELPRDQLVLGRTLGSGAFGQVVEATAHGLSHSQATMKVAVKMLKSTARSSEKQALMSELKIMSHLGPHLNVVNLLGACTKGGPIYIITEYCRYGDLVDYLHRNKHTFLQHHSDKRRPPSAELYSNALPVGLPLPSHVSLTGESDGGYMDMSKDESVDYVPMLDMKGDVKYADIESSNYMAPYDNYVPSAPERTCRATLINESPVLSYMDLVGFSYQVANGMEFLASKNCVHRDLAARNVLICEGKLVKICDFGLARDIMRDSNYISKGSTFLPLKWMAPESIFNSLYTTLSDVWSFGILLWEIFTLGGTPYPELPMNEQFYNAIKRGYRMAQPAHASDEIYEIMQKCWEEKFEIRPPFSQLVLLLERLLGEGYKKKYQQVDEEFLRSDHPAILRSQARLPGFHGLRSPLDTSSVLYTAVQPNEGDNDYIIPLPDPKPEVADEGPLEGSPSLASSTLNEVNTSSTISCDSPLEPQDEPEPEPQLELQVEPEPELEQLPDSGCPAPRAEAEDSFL
Method: PDGFR assay was carried out with human recombinant PDGFR beta, fluorescein labeled peptide substrate (with a peptide sequence of ALTSNQEYLDLSMPL) and test compounds (in serial dilution) using 384-well plates. Kinase reaction was performed in MOPS buffer (20 mM MOPS pH 7.1, 5 mM Sodium Acetate, 6.25 mM MgCl2, 0.5 mM EDTA, 1 mM DTT, 0.04 mM NaVO4, 0.02% BSA), in the presence of 48 uM ATP, incubated at room temperature for 60 minutes. Reaction was stopped by IMAP Bead Binding System (Molecular Devices). After incubation at room temperature for 2 hours, the reaction product was analyzed on LJL Acquest.
as §1

HCT 116 cells = assay: CellTiter-Glo assay in HCT 116 cells (antiproliferative activity); format: cell-based; conditions: Homo sapiens, HCT-116, 120 h, cell viability after 5 days
Method: The CellTiter-Glo™ Luminescent Cell Viability Assay (Promega) is a homogeneous method of determining the number of viable cells in culture based on quantitation of the ATP present, which signals the presence of metabolically active cells.
HCT 116 cells (human colon carcinoma, ATCC-No. CCl-247) were cultivated in RPMI 1640 medium with GlutaMAX™ 1 (Invitrogen, Cat-No. 61870-010), 5% Fetal Calf Serum (FCS, Sigma Cat-No. F4135 (FBS)); 100 Units/ml penicillin/100 μg/ml streptomycin (=Pen/Strep from Invitrogen Cat. No. 15140). For the assay the cells were seeded in 384 well plates, 1000 cells per well, in the same medium. The next day the test compounds were added in various concentrations ranging from 30 μM to 0.0015 μM (10 concentrations, 1:3 diluted). After 5 days the CellTiter-Glo™ assay was done according to the instructions of the manufacturer (CellTiter-Glo™ Luminescent Cell Viability Assay, from Promega). In brief: the cell-plate was equilibrated to room temperature for approximately 30 minutes and than the CellTiter-Glo™ reagent was added. The contents were carefully mixed for 15 minutes to induce cell lysis. After 45 minutes the luminescent signal was measured in Victor 2, (scanning multiwell spectrophotometer, Wallac).
• Medium: RPMI 1640 with GlutaMAX™ 1 (Invitrogen, Cat-No. 61870), 5% FCS (Sigma Cat.-No. F4135), Pen/Strep (Invitrogen, Cat No. 15140). • HCT116 (ATCC-No. CCl-247): 1000 cells in 60 μl per well of 384 well plate (Greiner 781098, μClear-plate white) • After seeding incubate plates 24 h at 37° C., 5% CO2 2nd. Day: Induction (Treatment with Compounds, 10 Concentrations):
In order to achieve a final concentration of 30 μM as highest concentration 3.5 μl of 10 mM compound stock solution were added directly to 163 μl media. Then step e) of the dilution procedure described below, was followed.

T1 sequence (P05480 whole entry): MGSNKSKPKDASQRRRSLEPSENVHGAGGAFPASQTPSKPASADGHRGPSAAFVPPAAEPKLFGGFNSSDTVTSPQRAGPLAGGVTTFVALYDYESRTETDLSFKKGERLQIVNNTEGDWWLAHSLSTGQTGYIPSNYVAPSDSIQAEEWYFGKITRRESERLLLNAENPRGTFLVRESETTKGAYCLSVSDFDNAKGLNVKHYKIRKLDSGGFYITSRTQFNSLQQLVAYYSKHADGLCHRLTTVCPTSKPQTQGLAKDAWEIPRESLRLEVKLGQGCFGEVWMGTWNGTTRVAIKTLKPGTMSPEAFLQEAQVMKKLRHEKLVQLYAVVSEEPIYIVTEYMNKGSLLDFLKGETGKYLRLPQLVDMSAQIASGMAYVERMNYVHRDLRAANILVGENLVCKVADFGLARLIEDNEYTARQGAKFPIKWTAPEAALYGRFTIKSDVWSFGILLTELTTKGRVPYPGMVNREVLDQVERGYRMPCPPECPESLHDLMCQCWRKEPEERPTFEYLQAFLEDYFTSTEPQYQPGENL

Q: With `O=C(Nc1ccc(Cl)c(C(=O)Nc2cnc3[nH]ccc3c2)c1)c1ccc(N2CCOCC2)cc1` [Example 2-3, 2-Chloro-5-(4-morpholin-4-yl-benzoylamino)-N-(1H-pyrrolo[2,3-b]pyridin-5-yl)-benzamide] as the compound, how does the IC50 [1] read?
A: 0.189 µM

Q: What about the IC50 [2] of the same compound?
A: 0.005 to 1 µM

Q: And the IC50 [3]?
A: 0.01 to 1 µM

Q: What about the IC50 (HCT 116 cells) of the same compound?
A: 0.1 to 10 µM
